These results are taken from patent US20160175351A1, “CANCER TREATMENT” (DUKE UNIVERSITY, priority 2013, published 2016).

Structures are written as SMILES. Where a SMILES comes first, the peptide text is derived from it. The star is where a group is joined. Cbz = O=C(OCc1ccccc1)*; CHN2 = [N-]=[N+]=C*; tBu = CC(C)(C)*

Experiment [1] has as its system Ctr1 ectodomain cleavage in wild type mouse embryonic fibroblasts. Nature of the experiment: Ctr1 ectodomain cleavage, anti-Ctr1 immunoblot of wild type MEFs (FIG. 4). In kind it is cell-based. The settings on record: E64d 10 μM, harvested 16 hours later. The text has this:
(§1) FIG. 4 is an immunoblot of protein extracts from wild-type MEFs (lanes 1-4) and Cathepsin L^−/− MEFs (lanes 5-8) with an anti-Ctr1 antibody and an anti-tubulin antibody. Lanes 1 and 2 are duplicate samples from untreated wild type MEFs. Lanes 3 and 4 are duplicate samples from wild-type MEFs treated with the Cathepsin L inhibitor E64d. Lanes 5 and 6 are duplicate samples from untreated Cathepsin L^−/− MEFs. Lanes 7 and 8 are duplicate samples from Cathepsin L^−/− MEFs treated with the Cathepsin L inhibitor E64d.
(§2) Mouse embryonic fibroblasts from wild type and CatL^−/− littermates were cultured in medium supplemented with 10% fetal bovine serum and treated with DMSO or […] of the cell permeable cysteine protease inhibitor E64d and harvested 16 hours later. Total proteins were isolated from the cells by homogenizing cells in ice cold PBS supplemented with 1% Triton-X, 0.1% SDS, and 1 mM EDTA. Cell debris was removed by centrifugation and the total amounts of soluble proteins were quantified in each sample. Equal amounts of proteins were separated on Tris/glycine gradient gel, transferred to nitrocellulose membrane and blocked with 5% non-fat milk in Tris buffered saline supplemented with 0.05% Tween (TBST) for 1 h. Membranes were incubated with anti-Ctr1 antibody (1:1000) followed by anti-rabbit-HRP coupled antibody (1:5000) and bands detected by enhanced chemiluminescent substrate. […]

For experiment [2], the system named is Ctr1 ectodomain cleavage in Cathepsin L-/- mouse embryonic fibroblasts. Nature of the experiment: Ctr1 ectodomain cleavage, anti-Ctr1 immunoblot of Cathepsin L-/- MEFs (FIG. 4). In kind it is cell-based.
From the text: as §1, §2

The target of experiment [3] is cathepsin B (Homo sapiens, UniProt P07858). The note with it: known from literature (McGowan 1989; Barrett 1982); cited from earlier work.
Experiment [4] has as its target T1, cathepsin H (Homo sapiens, UniProt P09668).
T1 sequence (P09668 98-335): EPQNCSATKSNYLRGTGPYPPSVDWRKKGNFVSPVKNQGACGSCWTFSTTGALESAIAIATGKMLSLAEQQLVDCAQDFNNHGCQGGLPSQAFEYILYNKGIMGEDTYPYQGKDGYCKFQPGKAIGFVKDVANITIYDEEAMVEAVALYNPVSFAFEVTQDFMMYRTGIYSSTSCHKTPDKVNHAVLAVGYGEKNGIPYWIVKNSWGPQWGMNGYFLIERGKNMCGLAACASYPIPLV
The note with it: known from literature (McGowan 1989; Barrett 1982); cited from earlier work.

Experiment [5] deals with cathepsin L (Homo sapiens, UniProt P07711). The note with it: known from literature (McGowan 1989; Barrett 1982); cited from earlier work.
Sequence of cathepsin L (P07711 114-333): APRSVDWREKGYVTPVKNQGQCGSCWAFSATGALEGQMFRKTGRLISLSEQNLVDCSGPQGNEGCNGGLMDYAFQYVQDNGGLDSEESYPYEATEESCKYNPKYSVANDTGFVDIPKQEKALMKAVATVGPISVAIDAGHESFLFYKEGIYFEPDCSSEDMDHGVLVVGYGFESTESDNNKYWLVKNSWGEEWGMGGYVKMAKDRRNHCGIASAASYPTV
For experiment [6], the system named is calpain. The settings on record: known from literature (McGowan 1989; Barrett 1982); cited from earlier work.
The target in experiment [7] is T2, papain (Carica papaya, UniProt P00784).
T2 sequence (P00784 134-345): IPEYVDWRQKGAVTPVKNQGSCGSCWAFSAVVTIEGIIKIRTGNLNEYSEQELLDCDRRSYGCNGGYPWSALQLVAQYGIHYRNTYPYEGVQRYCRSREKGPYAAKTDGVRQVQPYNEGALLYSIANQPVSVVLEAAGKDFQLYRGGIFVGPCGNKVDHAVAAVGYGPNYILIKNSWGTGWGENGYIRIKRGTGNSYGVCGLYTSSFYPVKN
The settings on record: known from literature (McGowan 1989; Barrett 1982); cited from earlier work.

Experiment [8] has as its system human Ctr1. Nature of the experiment: Ctr1 ectodomain cleavage, anti-Ctr1 immunoblot of Ctr1-/- MEFs stably transfected with human Ctr1 (FIG. 5). In kind it is cell-based. The settings on record: MEFs expressing human Ctr1, inhibitor 10 μM, 16 hours, immunoblot (lane 3). The protocol: (§3) Each of the above were either untreated (lanes 1 and 2), or treated with the Cathepsin L inhibitor Z-FY(tBu)-DMK (lanes 3 and 4). F=full-length, T=truncated.
(§4) Mouse embryonic fibroblasts from Ctr1^−/− embryos were stably transfected with the human Ctr1 and the human Ctr1 containing the proline to alanine mutation at position 25 (Ctr1^P25A). Cells were cultured in medium supplemented with 20% fetal bovine serum and treated with DMSO or 10 μM cysteine protease Cathepsin L, Z-FY(t-Bu)-DMK and harvested 16 hours later. Total proteins were isolated from the cells by homogenizing cells in ice cold PBS supplemented with 1% Triton-X, 0.1% SDS, and 1 mM EDTA. Cell debris was removed by centrifugation and the total amounts of soluble proteins were quantified in each sample. Equal amounts of proteins were separated on tris/glycine gradient gel, transferred to nitrocellulose membrane and blocked with 5% non-fat milk in Tris buffered saline supplemented with 0.05% Tween (TBST) for 1 h. Membranes were incubated with anti-Ctr1 antibody (1:1000) followed by anti-rabbit-HRP coupled antibody (1:5000) and bands detected by enhanced chemiluminescent substrate. Anti-Actin antibody was used as loading control.
(§5) Inhibition of the cysteine protease Cathepsin L, Z-FY(t-Bu)-DMK (10 μM) (lanes 3 and 4) results in an increased levels of the copper and cisplatin binding full length form of Ctr1. […]
For orientation: In western blotting, separated proteins are transferred to a membrane and probed.

For experiment [9], the system named is human Ctr1 containing the proline to alanine mutation at position 25 (Ctr1^P25A). Nature of the experiment: Ctr1 ectodomain cleavage, anti-Ctr1 immunoblot of Ctr1-/- MEFs stably transfected with human Ctr1 P25A (FIG. 5). The class given is cell-based. The settings on record: MEFs expressing Ctr1^P25A, inhibitor 10 μM, 16 hours, immunoblot (lane 4). The protocol:
as §3, §4, §5

The test system of experiment [10] is Ctr1-/- MEFs expressing wild type Ctr1. Nature of the experiment: Cisplatin uptake/accumulation by ICP-MS in MEFs expressing wild type Ctr1 (FIG. 6). The note with it: inhibitor 10 μM over night, then cisplatin 200 μM for 2 h. In kind it is cell-based, mouse. The text has this:
(§6) FIG. 6 is a graph showing platinum accumulation in Ctr1 knockout MEFs (Ctr1^−/−), wild-type MEFs (Ctr1), or MEFs expressing Ctr1 with a Pro25Ala mutation (Ctr1^P25A). Each of the above were either untreated (1, 2 and 3), or treated with the Cathepsin L inhibitor Z-FY(tBu)-DMK (4, 5 and 6).
(§7) Mouse embryonic fibroblasts from Ctr1^−/− embryos were stably transfected with the human Ctr1 and the human Ctr1 containing the proline to alanine mutation at position 25 (Ctr1^P25A). […] Cells were rinsed in three times with ice cold PBS before the cells were scraped and divided into two tubes; one for measuring metal concentration and one for protein quantification. […] Platinum concentrations in the digested samples were measured by inductively coupled plasma mass spectrometry ([…]) and normalized to the total amount of protein in the sample.
(§8) Mouse Ctr1^−/− MEFs were transfected with vector alone (Ctr1^−/−), the expression vector expressing wild type Ctr1 (Ctr1) or the Ctr1^P25A mutant protein (Ctr1^P25A). Cells were incubated with cisplatin (200 μM for 2 h), or cisplatin plus the Cathepsin L inhibitor Z-FY(t-Bu)-DMK (10 μM) as indicated, harvested and cisplatin accumulation measured by ICP-MS and plotted on the Y-axis.

For experiment [11], the system named is Ctr1-/- MEFs expressing Ctr1^P25A. Nature of the experiment: Cisplatin uptake/accumulation by ICP-MS in MEFs expressing Ctr1 P25A (FIG. 6). The note with it: inhibitor 10 μM over night, then cisplatin 200 μM for 2 h. In kind it is cell-based, mouse.
From the text: as §6, §7, §8

Consider `CCOC(=O)[C@H]1O[C@@H]1C(=O)N[C@@H](CC(C)C)C(=O)NCCC(C)C` (relative stereo) [E64d, (2S,3S)-trans-Epoxysuccinyl-L-leucylamido-3-methylbutane ethyl ester], for which the “levels of cleaved Ctr1” value in [1] is given as “dramatic reduction”; in experiment [2] (Cathepsin L knock out MEFs, E64d 10 μM, 16 hours), “not”. For the same compound, the “full-length Ctr1” value in experiment [2] (Cathepsin L-/- MEFs treated with E64d vs not treated) is listed as “increase”.
As for `CC(C)C[C@H](NC(=O)[C@H]1O[C@@H]1C(=O)O)C(=O)NCCCCN=C(N)N` (relative stereo) [E-64, trans-Epoxysuccinyl-L-leucylamido(4-guanidino)butane], the “inhibition of cathepsin B” value in experiment [3] was “inhibit”. For the same compound, the “inhibition of cathepsin H” value in experiment [4] is recorded as “inhibit”. The “inhibition of cathepsin L” value in experiment [5] is given as “inhibit”. Moreover, the inhibition of calpain result in experiment [6] is listed as “inhibit”. The inhibition of papain entry in [7] is listed as “inhibit”.
On to `CC(C)(C)Oc1ccc(CC(NC(=O)C(Cc2ccccc2)NC(=O)OCc2ccccc2)C(=O)C=[N+]=[N-])cc1` (stereo not drawn) [Z-FY(t-Bu)-DMK, benzyl (1-((1-(4-(tert-butoxy)phenyl)-4-diazo-3-oxobutan-2-yl)amino)-1-oxo-3-phenylpropan-2-yl)carbamate] (Cbz-Phe-Tyr(tBu)-CHN2; configuration not given here), for which the “levels of the copper and cisplatin binding full length form of Ctr1” value in [8] and in experiment [9] was “increased” throughout. Further, the “cisplatin accumulation (platinum by ICP-MS, normalized to protein)” value in experiment [10] and in experiment [11] was “enhanced” in each case.
